Test results published in patent EP4389751A1, “HETEROCYCLIC COMPOUNDS AND USES THEREOF” (Kumquat Biosciences Inc., priority 2021, dated 2024).
Where two headings read alike, the source gives them in different places.

Experiments:
A549 cells = assay: Cell proliferation assay (CellTiter-Glo), K-Ras G12S cells; type: cell-based; conditions: for IC50: Homo sapiens, A549, A549 cells (K-Ras G12S), read-out: Inhibition of A549 Cells (IC50); for ratio of IC50 against a G12D cell line to IC50 against a G12S cell line: K-Ras G12D cell line such as GP2D relative to K-Ras G12S cell line such as A549, greater than 1, 2, 3, 4, 5, 10, 15 or even greater, 8640 min
Procedure, shortened: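 A549 cells (K-Ras G12S) in RPMI-1640 with 10% FBS, seeded in standard or ultra-low-attachment plates and dosed next day with a 10-point 3-fold series. Viability read about 6 days later by CellTiter-Glo luminescence. IC50 from four-parameter fit.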

[1] = molecular target: T1, KRAS protein (His-tagged GDP-loaded G12S 1-169) (Homo sapiens, UniProt P01116, G12S); assay: Covalent modification of KRAS protein, intact-protein LC-MS; type: binding; conditions: 24hrs at room temperature, KRAS protein ~2 µM
T1 construct: His-tagged GDP-loaded G12S 1-169
Procedure, shortened: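 Percent covalent modification derives from deconvoluted intact-mass intensities of compound-adducted versus unmodified KRAS, measured by LC-ESI-MS. Before analysis, ~2 µM GDP-loaded His-KRAS 1-169 was exposed to compound for 24 h at room temperature and acidified with formic acid.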

GP2D cells = assay: Cell proliferation assay (CellTiter-Glo), K-Ras G12D cells; type: cell-based; conditions: GP2D cells (K-Ras G12D); read-out: Inhibition of GP2D Cells (IC50)
Procedure, shortened: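 CellTiter-Glo luminescence, taken roughly 5 days after dosing, measured growth of G12D-mutant GP2D cells in DMEM/2 mM glutamine/10% FBS. Compound dilution series (e.g., 9 points, 3-fold) added the day after plating. Four-parameter fitting gave IC50.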

K-Ras G12S = molecular target: T2, K-Ras G12S (Homo sapiens, UniProt P01116, G12S); assay: HTRF assay of the K-Ras / SOS1 interaction; type: biochemical; conditions: IC50 (against K-Ras G12D) to IC50 (against K-Ras G12S)
T2 construct: made in house; host or cells: E. coli (e.g., BL21 (DE3))
Procedure, shortened: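 Compounds (duplicates, 10 µM to 0.01 µM) were incubated ≥~10 min with Eu-labelled GST-K-Ras G12S and XL665-labelled His-hSOS1 in HEPES pH 7.4 buffer containing NaCl, DTT, BSA and Igepal. Disruption measured as HTRF emission ratio 665/620 nm, fitted to IC50.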

[2] = Metabolic (microsomal) stability assay; type: in vitro ADME; conditions: mouse and/or human liver microsomal metabolism assays, greater than 10, 20, 30, 40, 50, 60 mins or longer
Protocol: All incubations are conducted in duplicate. […] Supernatants (40 µL) are transferred into clean 96-deep well plates.
The column temperature is maintained at 40 °C.
(Ct)/(C0) = e^−kt [formula]

Structure (SMILES) | IC50 (A549 cells; bin ≤ 500 nM) | ratio of IC50 against a G12D cell line to IC50 against a G12S cell line (A549 cells) | % G12S Modification at 24 hr. [1] | IC50 (GP2D cells) | Ratio of IC50 KRAS G12D vs. IC50 KRAS G12S (K-Ras G12S) | T1/2 ([2]; 0.5 µM) | IC50 (A549 cells; bin 500 nM to 5 µM) | half-life at 0.5 µM ([2]; liver microsomes, pH 7.4)
C#Cc1c(F)ccc2cc(O)cc(-c3ncc4c(N5CCCC6(CN(C(=O)n7cncn7)C6)C5)nc(OC[C@@]56CCCN5C[C@H](F)C6)nc4c3F)c12 [Compound A133, (6-(7-(8-ethynyl-7-fluoro-3-hydroxynaphthalen-1-yl)-8-fluoro-2-(((2R,7aS)-2-fluorotetrahydro-1H-pyrrolizin-7a(5H)-yl)methoxy)pyrido[4,3-d]pyrimidin-4-yl)-2,6-diazaspiro[3.5]nonan-2-yl)(1H-1,2,4-triazol-1-yl)methanone] | ≤ 500 nM | – | +++ (+++ indicates greater than 20% labelling) | 1000 to 10000 nM | – | – | – | –
N#Cc1c(N)sc2c(F)ccc(-c3c(Cl)cc4c(N5CC6CCC(C5)N6C(=O)n5ncnc5Cl)nc(OC[C@@]56CCCN5C[C@H](F)C6)nc4c3F)c12 [Compound A194] | – | – | ++ (++ indicates between about 1%- 20% labelling) | ≤ 1000 nM | A (A: indicates that the ratio of IC50 against KrasG12D vs. IC50 against KrasG12S is 1-fold or greater) | greater than 10 mins | – | –
C#Cc1c(F)ccc2cc(O)cc(-c3ccc4c(N5CCCC6(CN(C(=O)n7cncn7)C6)C5)nc(OC[C@@]56CCCN5C[C@H](F)C6)nc4c3F)c12 [Compound A210, (6-(7-(8-ethynyl-7-fluoro-3-hydroxynaphthalen-1-yl)-8-fluoro-2-(((2R,7aS)-2-fluorotetrahydro-1H-pyrrolizin-7a(5H)-yl)methoxy)quinazolin-4-yl)-2,6-diazaspiro[3.5]nonan-2-yl)(1H-1,2,4-triazol-1-yl)methanone] | ≤ 500 nM | greater than 1 | +++ (+++ indicates greater than 20% labelling) | 1000 to 10000 nM | – | – | – | –
C#Cc1c(F)ccc2cc(O)cc(-c3ncc4c(N5CC6CCC(C5)N6C(=O)n5cnc(C#N)c5)nc(OC[C@@]56CCCN5C[C@H](F)C6)nc4c3F)c12 [Compound A255, 1-(3-(7-(8-ethynyl-7-fluoro-3-hydroxynaphthalen-1-yl)-8-fluoro-2-(((2R,7aS)-2-fluorotetrahydro-1H-pyrrolizin-7a(5H)-yl)methoxy)pyrido[4,3-d]pyrimidin-4-yl)-3,8-diazabicyclo[3.2.1]octane-8-carbonyl)-1H-imidazole-4-carbonitrile] | – | – | ++ (++ indicates between about 1%- 20% labelling) | ≤ 1000 nM | – | – | 500 to 5000 nM | –
N#Cc1cnn(C(=O)N2C3CCC2CN(c2nc(OC[C@@]45CCCN4C[C@H](F)C5)nc4c(F)c(-c5ccc(F)c6sc(N)c(C#N)c56)c(Cl)cc24)C3)c1 [Compound A278, 1-(3-(7-(2-amino-3-cyano-7-fluorobenzo[b]thiophen-4-yl)-6-chloro-8-fluoro-2-(((2R,7aS)-2-fluorotetrahydro-1H-pyrrolizin-7a(5H)-yl)methoxy)quinazolin-4-yl)-3,8-diazabicyclo[3.2.1]octane-8-carbonyl)-1H-pyrazole-4-carbonitrile] | – | – | – | ≤ 1000 nM | A (A: indicates that the ratio of IC50 against KrasG12D vs. IC50 against KrasG12S is 1-fold or greater) | – | – | > 10 min

Second part, led by results:

IC50 (A549 cells; bin ≤ 500 nM) | ratio of IC50 against a G12D cell line to IC50 against a G12S cell line (A549 cells) | Structure (SMILES) | % G12S Modification at 24 hr. [1] | IC50 (GP2D cells) | Ratio of IC50 KRAS G12D vs. IC50 KRAS G12S (K-Ras G12S) | T1/2 ([2]; 0.5 µM) | IC50 (A549 cells; bin 500 nM to 5 µM) | half-life at 0.5 µM ([2]; liver microsomes, pH 7.4)
≤ 500 nM | – | N#Cc1c(N)sc2c(F)ccc(-c3c(Cl)cc4c(N5CCC6CN(C(=O)n7cncn7)CC65)nc(OC[C@@]56CCCN5C[C@H](F)C6)nc4c3F)c12 (stereo partly drawn) [Compound A178, 4-(4-(5-(1H-1,2,4-triazole-1-carbonyl)hexahydropyrrolo[3,4-b]pyrrol-1(2H)-yl)-6-chloro-8-fluoro-2-(((2R,7aS)-2-fluorotetrahydro-1H-pyrrolizin-7a(5H)-yl)methoxy)quinazolm-7-yl)-2-amino-7-fluorobenzo[b]thiophene-3-carbonitrile] | +++ (+++ indicates greater than 20% labelling) | ≤ 1000 nM | – | – | – | –
≤ 500 nM | greater than 1 | C[C@H](Oc1nc(N2CCCCC3(CN(C(=O)n4cncn4)C3)C2)c2cc(Cl)c(-c3ccc(F)c4sc(N)c(C#N)c34)c(F)c2n1)[C@@H]1CCCN1C [Compound A219, 4-(4-(2-(1H-1,2,4-triazole-1-carbonyl)-2,6-diazaspiro[3.6]decan-6-yl)-6-chloro-8-fluoro-2-((S)-1-((S)-1-methylpyrrolidin-2-yl)ethoxy)quinazolin-7-yl)-2-amino-7-fluorobenzo[b]thiophene-3-carbonitrile] | +++ (+++ indicates greater than 20% labelling) | ≤ 1000 nM | – | – | – | –
≤ 500 nM | – | C[C@H](Oc1nc(N2CCOC3(CN(C(=O)n4cncn4)C3)C2)c2cc(Cl)c(-c3ccc(F)c4sc(N)c(C#N)c34)c(F)c2n1)[C@@H]1CCCN1C [Compound A275, 4-(4-(2-(1H-1,2,4-triazole-1-carbonyl)-5-oxa-2,8-diazaspiro[3.5]nonan-8-yl)-6-chloro-8-fluoro-2-((S)-1-((S)-1-methylpyrrolidin-2-yl)ethoxy)quinazolin-7-yl)-2-amino-7-fluorobenzo[b]thiophene-3-carbonitrile] | +++ (+++ indicates greater than 20% labelling) | 1000 to 10000 nM | – | – | – | –
≤ 500 nM | – | N#Cc1c(N)sc2c(F)ccc(-c3c(Cl)cc4c(N5CCCCC6(CN(C(=O)n7cncn7)C6)C5)nc(OC[C@@]56CCCN5C[C@H](F)C6)nc4c3F)c12 [Compound A295, 4-(4-(2-(1H-1,2,4-triazole-1-carbonyl)-2,6-diazaspiro[3.6]decan-6-yl)-6-chloro-8-fluoro-2-(((2R,7aS)-2-fluorotetrahydro-1H-pyrrolizin-7a(5H)-yl)methoxy)quinazolin-7-yl)-2-amino-7-fluorobenzo[b]thiophene-3-carbonitrile] | +++ (+++ indicates greater than 20% labelling) | ≤ 1000 nM | – | – | – | –
